The source of these data is patent publication EP1276895B1, “METHOD FOR THE IDENTIFICATION OF ACTIVE SITE PROTEASE INACTIVATORS” (THE UNIVERSITY OF GEORGIA RESEARCH FOUNDATION, INC., priority 2000, dated 2001).

The test system of experiment [1] is purified Taenia solium cysteine protease. Kind of experiment: Substrate cleavage screen of AFC-linked synthetic substrates (Step II), purified protease. As to conditions: 1 ug purified protease, 1 ug substrate, Citrate pH 4.9 with 0.01 M cysteine, 18 h, 37 °C. Type of experiment: biochemical. How it is done: In this step, the most efficacious substrate for detection of the cysteine protease (high Kcat substrate) was determined in vitro along with those substrates which were not well cleaved (low kcat substrates). From this point forth, the following conditions refer to all assays: "assay buffer" refers to 0.4 M Citrate, pH 4.9 (the pH optima of the protease). Incubation time was 18 hours at 37°C. These conditions were determined by our preliminary data to be best for kinetic evaluation of the protease. […] The experiments were conducted in […] Borosilicate mini-culture tubes (Fisher Scientific), and a fluorometer (Turner) was employed for detection of AFC cleavage.
Approximately 1 ug (or a proteolytically detectable amount) of the purified target cysteine protease was incubated individually, with 1 ug of each of the available substrates in 500 uL of assay buffer. During this setup, the substrate was pre-incubated in the assay buffer for a short period of time (20 minutes) in order to reach an equilibrated status before the addition of the protease. Cleavage assessments were based upon the property of the protease to cleave synthetic peptide substrates linked at the C-terminus to 7-Amino-4-Trifluoromethyl Coumarin (AFC) as previously described. AFC linked tripeptides, dipeptides, and monopeptides, (with a variety of permutations at P3-P1) were available from Enzyme Systems Products (Livermore, CA), and were used as the source of the subset. Following incubation of enzyme preparations overnight (18 h, 37 °C) with peptide in assay buffer (Citrate, pH 4.9, supplemented with 0.01 M cysteine), free AFC concentrations were measured fluorometrically (excitation 405 nm, emission 505 nm). The proteolytic cleavage released the AFC group, which was measurable as a free molecule by a standard fluorometer and converted into molar quantities, based upon a previously established standard curve. The simplicity of AFC detection by the fluorometer was a key factor which quickened and simplified the procedures.
In the assay, 1 ug of the purified Taenia cysteine protease was added to a saturating amount of Z-Phe-Arg-AFC (4X10^-5 M) in assay buffer. The experiment was conducted in triplicate and repeated at least 5 times until we were certain that variability in AFC cleavage was not statistically significant.
Vmax was calculated for the cleavage of substrates by the purified target protease and Vmax was calculated for substrates cleaved by the crude mix protease using conventional kinetic modeling calculations already described in the art.

Experiment [2] has the same test system. Kind of experiment: Competitor assay of low Vmax substrates (vehicles) against high Vmax substrate cocktails (Step III), purified protease. Type of experiment: biochemical. Particulars: purified protease; for inhibition with the final cocktail (7.4%): 7.4% cocktail = Z-FR-AFC + Z-FAR-AFC + Z-AAK-AFC + AP-AFC + Z-VLR-AFC, 1X10^-6 M each, vehicle 8X10^-6 M; for inhibition in the presence of the 1.4% cocktail: 1.4% cocktail = Z-FR-AFC 1X10^-6M. How it is done: (We employed "Vmax" here although Kcat could also be used). Due to the lower number of substrates, a percentage was not chosen for the "BOTTOM %" " substrates. Alternately, all substrates which were not cleaved as determined by a value of 10 uM/hr or less, were chosen to be tested in this step for competitive ability. From this point forth, the term "vehicle" will represent low Vmax substrates that were capable of inhibiting cleavage of the percent cocktails. In this instance, we tested for "vehicles" which inhibited cleavage of the TOP 1.4% cocktail (they were delivered into the active site). Based upon our results from Step II, the top 1.4% cocktail was composed of Z-Phe-Arg-AFC, the highest cleaved substrate.
(§1) The experiment began with a competitor test between the noncleaved low Vmax substrates and the highest Vmax substrate, Z-Phe-Arg-AFC. Concentrations were varied between the low Vmax substrate and Z-Phe-Arg-AFC, as described above under "refinement of assay" until a relative inhibition profile was obtained.
The mixture was allowed to equilibrate for a period of 30 minutes. Finally, active purified enzyme was added to the tubes at a concentration which was always 50 times less than the concentration of the high and low Vmax substrates, in order to insure saturation conditions. This concentration varied from purification to purification and the amount added depended upon the yield and specific activity of the purified protease.
Positive controls were set up similarly as described for test controls, except that solvent was added in substitution for the low Vmax substrate (in a volume equal to the low Vmax volume addition). All of the substrates could be dissolved in dimethylsulfoxide (DMSO), and therefore, this was the solvent of choice. Negative controls were set up by adding the low Vmax and the high Vmax substrate in a tube without the protease. All potential non-proteolytic induced liberation of AFC was therefore controlled for in this tube (a feature which also insured stability of the AFC substrates, since these substrates will freely liberate AFC when unstable). A tube set will be established for this negative control.
All controls were set up in triplicate, and experiments repeated a minimum of five times. The assays were incubated at 37°C, for 18 hours overnight.
(§2) Percent inhibition was calculated as: %Inhibition =; ((AFC positive for"Y"-AFC negative for"Y")-(AFC test-AFC negative for"Y")X100)/(AFC positive for "Y"-AFC negative for "Y") [formula]
A 2.9% cocktail of the high Vmax substrates was made. This was composed of Z-FR-AFC and the second most cleaved substrate, Z-FAR-AFC. The vehicles promoted from the initial screenings above were again tested for competitive inhibition ability with the new cocktails. Their concentrations were set identically to those which were "fixed" in the previous protocols. In other words, 8X10^-6M of the vehicle was added to the culture tube with 1X10^-6 M of Z-FR-AFC and 1X10^-6 M of Z-FAR-AFC. Active protease was added last at a concentration that was 50 times less than the concentration of the high Vmax substrate (to ensure saturating conditions).
In similar experimental fashion, a 4.4%, 5.9%, and 7.4% cocktail were tested with each of the promising vehicles. Each percentage point represented an increase by one substrate. Each of the individual components in the cocktail were added at 1X10^-6 M each, to 8X10^-6 M of the vehicle. The composition of the cocktails was as follows: 4.4% cocktail: Z-FR-AFC, Z-FAR-AFC, and Z-AAK-AFC (third highest cleaved substrate); 5.9% cocktail: Z-FR-AFC, Z-FAR-AFC, Z-AAK-AFC, and AP-AFC (fourth highest cleaved substrate); 7.4% cocktail: […], Z-FAR-AFC, Z-AAK-AFC, AP-AFC, and Z-VLR-AFC. We stopped at this number of substrates in the cocktail, since confidence was obtained that inhibitory potential of vehicles could be "diluted out."
Finally, a manageable set of candidate vehicles was determined. […]

The next experiment relates to Taenia solium crude mix. The experiment in a line: Competitor assay of vehicles against high Vmax substrate cocktails (Step III), crude mix. The format is biochemical. How it is done:
Step III for a crude mix proceeds it would for a purified protease, except that Vm is used instead of kcat.
as §1, §2
One of the most intriguing findings in this experiment was that a highly similar inhibition pattern for the competitor assay was noted when the crude mix was employed as the source of the target protease. Although there were some variations in the effects of inhibitor dilution, the most highly ranked vehicles remained inhibitory consistently in comparison to the profile with the target protease. The relative profile and composition of the top tiers of vehicles was identical. Z-LLL-AFC, Z-LLY-AFC, Mu-LY-AFC, Boc-VPR-AFC, Z-SY-AFC, Z-RR-AFC, Z-FLF-AFC, Z-LGR-AFC consistently presented as the top eight vehicles (Fig. 5b), respectively, based upon their V values (Table 2). […] It was notable that the three vehicles had very similar V values. […] As was mentioned, this vehicle along with Z-LLL-AFC and Z-LLY-AFC, were consistently the most inhibitory vehicles. The V values of the most inhibitory vehicle series are shown below in Table 2. Again, a clear break between the first and second tier vehicles could be noted with the V value. Table 2. Vehicles and V value rankings.

Experiment [3] concerns purified Taenia solium cysteine protease. Kind of experiment: Inhibition assay of protease inactivators against the high Vmax cocktail, EC100 and Ki ranking (Step VII B). The format is biochemical. An excerpt:
Once the protease inactivators were synthesized in the organic laboratory, they were to be tested for the lowest efficacious concentrations at which they induced 100% inhibition of the target protease (EC100). The top percent cocktail that was employed in the final vehicle selection step of Step III was employed as the source of competition for the inhibitors. In this case, this was the […] which was comprised of Z-FR-AFC, Z-FAR-AFC, Z-AP-AFC, Z-AAK-AFC, and Z-VLR-AFC. The final result would be a ranking of transition state candidate protease inactivators with a high ranking directly correlating to a low EC100 value. The following steps describe the assay:
Step A: Initial Screening. To set up the test control, each protease inactivator was first incubated with the […] (which provided the final differentiation of vehicles in Step III). To begin with, the protease inactivator was incubated at a concentration of 3 X 10^-9M in 500 ul of assay buffer ([…], pH 4.9 supplemented with 10mM L-cysteine). This concentration was determined, after a series of inhibitor dilutions identified, to be the best inhibitor concentration at which a differentiation in inhibitor potential could be noted. Next, a concentration equal to 4 X 10^-5M for each of the individual cocktail components, was added to the mix. The components were allowed to equilibrate for a period of 30 minutes. Finally, active purified enzyme was added to the tubes at a concentration which was always at least 50 times less than the concentration of the lowest concentration in the mix (to provide saturating conditions.) This concentration varied from purification to purification and the amount added depended upon the yield and specific activity of the purified protease.
Positive controls were set up similarly as described for test controls, except that solvent was added in substitution for the protease inactivator (in a volume equal to the […] volume addition). All of the protease inactivators could be dissolved in dimethylsulfoxide (DMSO), and therefore, this was the solvent of choice. Negative controls were set up by adding the protease inactivator and the cocktail substrates in a tube, without the protease. All potential non-proteolytic induced liberation of AFC was therefore controlled for in this tube (a feature which also insured stability of the AFC substrates, since these substrates will freely liberate AFC when unstable).
All controls were set up in triplicate, and experiments repeated a minimum of five times. The assays were incubated at 37°C, overnight. Percent inhibition was calculated as: % Inhibition = ((AFC positive for ʺSIʺ-AFC negative for ʺSIʺ)-(AFC test-AFC negative for ʺSIʺ))/(AFC positive for ʺSIʺ-AFC negative for ʺSIʺ) × 100 [formula]
Because of this, a dilution study was required in order to determine a viable ranking. Thus, the concentration of each of the protease inactivators was lowered with a dose response setup until the most efficacious concentration for 100% inhibition (EC100) could be determined. […] The final result of the assay was a ranked candidate list of protease inactivators. A lower EC100 was attributable to a higher ranking and vice-versa.
In order to determine Ki, all of the high Vmax cocktail substrates were employed for Ki determination (since Ki of the inhibitor for the enzyme is the same regardless of the substrate). To insure the highest accuracy, Ki was to be determined upon a minimum of at least three of the high Kcat substrates. Nonlinear fitting and the Dixon plot were both employed to determine Ki of the top ranked protease inactivators. A further plot was constructed using either Eadie Hofstee as well as Hanes to determine the mode of inhibition. These methods were used in order to determine the type of inhibition.

The next experiment deals with Taenia crassiceps cysts. Kind of experiment: Short-term prophylactic protection of BALB/c mice from cysticercosis infection. The format is in vivo. As to conditions: pre-injected two days, 10 T. crassiceps cysts/mouse, dosed daily for four weeks, cysts counted after one month, versus untreated controls.

Residues, ends and D or L forms follow the SMILES beside them. *: point of attachment. AFC = O=c1cc(C(F)(F)F)c2ccc(N*)cc2o1; MeOSuc = COC(=O)CCC(=O)*; Cbz = O=C(OCc1ccccc1)*

Turning to `COC(=O)CCC(=O)N[C@@H](Cc1ccccc1)C(=O)N[C@@H](CC(C)C)C(=O)N[C@@H](Cc1ccccc1)C(=O)Nc1ccc2c(C(F)(F)F)cc(=O)oc2c1` [MeoSuc-FLF-AFC, reference compound] (MeOSuc-Phe-Leu-Phe-{AFC}), in experiment [1], the “cleavage of AFC-linked substrate (Vmax)” value is given as “not cleaved”.
Turning to `N=C(N)NCCC[C@H](NC(=O)OCc1ccccc1)C(=O)N[C@@H](CCCNC(=N)N)C(=O)Nc1ccc2c(C(F)(F)F)cc(=O)oc2c1` [Z-RR-AFC] (Cbz-Arg-Arg-{AFC}), in experiment [2], the “inhibition with the final cocktail (7.4%)” value is “less than 20%”. For the same compound, the “V Value” in experiment [2] (V = P * M, P = inhibition with first (1.4%) cocktail, M = inhibition with last (7.4%) cocktail, vehicle 8X10^-6M, each cocktail substrate 1X10^-6 M) was 0.09; in the experiment on Taenia solium crude mix (V = P * M), 0.09. In the experiment with Taenia solium crude mix, the Tier is on record as 2 (The second tier was composed of those vehicles, which produced inhibition between 20-50% inhibition when in the presence of the 1.4% cocktail).
For the compound `CC(C)C[C@H](NC(=O)OCc1ccccc1)C(=O)N[C@@H](CCCNC(=N)N)C(=O)N[C@@H](CCCNC(=N)N)C(=O)Nc1ccc2c(C(F)(F)F)cc(=O)oc2c1` [Z-LRR-AFC] (Cbz-Leu-Arg-Arg-{AFC}), in experiment [2] (vehicle 8X10^-6M), the “inhibition in the presence of the 1.4% cocktail” value is given as “greater than 20%”.
On to `CC(C)C[C@H](NC(=O)OCc1ccccc1)C(=O)NCC(=O)N[C@@H](CCCNC(=N)N)C(=O)Nc1ccc2c(C(F)(F)F)cc(=O)oc2c1` [Z-LGR-AFC, Z-Leu-Gly-Arg-AFC] (Cbz-Leu-Gly-Arg-{AFC}), for which the “cleavage of AFC-linked substrate (Vmax)” value in experiment [1] is “noncleavable”. Besides, the “inhibition in the presence of the 1.4% cocktail” value in experiment [2] (vehicle 8X10^-6M) is “greater than 20%”. Also, the “inhibition with the final cocktail (7.4%)” value in experiment [2] is “less than 20%”.
With `N[C@@H](CCC(=O)O)C(=O)N[C@@H](Cc1ccc(O)cc1)C(=O)Nc1ccc2c(C(F)(F)F)cc(=O)oc2c1` [EY-AFC, reference compound] (H-Glu-Tyr-{AFC}), the “cleavage of AFC-linked substrate (Vmax)” value in experiment [1] is given as “not cleaved”.
On to “Leu-Phe-Ketoamide-Pyridyl [K-Pyr, reference compound]”, for which the “% Inhibition of T. solium CP in vitro” value in experiment [3] (in vitro, concentration not stated in Table 4) is listed as 80%. In addition, the “% Prophylactic protection of BALB/c mice” value with Taenia crassiceps cysts worked out at 40%.
On to `CC(C)C[C@@H](/C=C/S(C)(=O)=O)NC(=O)[C@H](CC(C)C)NC(=O)[C@H](CC(C)C)NC(=O)OCc1ccccc1` [Z-LLL-VS, Z-Leu-Leu-Leu-vinylsulfone], for which the “ranking of protease inactivators by EC100” value in experiment [3] (dilution study, nanomolar levels) is recorded as “top inhibitors”.
